These results are taken from patent publication US20190374627A1, “TARGET PEPTIDES FOR CANCER THERAPY AND DIAGNOSTICS” (priority 2016, published 2019).

Square brackets hold non-standard residues; d marks the D form. Ends that are not written are not given here. pS = N[C@@H](COP(=O)(O)O)C(=O)O

The subject of one experiment is CD8^+ T cells (PBMCs). Put plainly: Intracellular cytokine staining (ICS) of PBMCs after 7 days of stimulation with MHC-I-pP (healthy donors, HH patients). The class given is cell-based, human. Conditions: for Reactive CD8^+ T cell population, HH2: HH patient HH2; for Reactive CD8^+ T cell population, HH3: HH patient HH3; for Reactive CD8^+ T cell population, HH8: HH patient HH8; for Reactive CD8^+ T cell population, HH11: HH patient HH11. As for the experimental part:
From this, CD8^+ T cell responses against newly identified MHC class I-associated phosphopeptides in healthy individuals and patients with chronic liver disease were investigated. Twenty-one of the newly identified HCC-associated HLA-A*0201-restricted phosphopeptides were selected (see Table 17) for further immunological testing in HLA-A*0201 positive patients. MHC-I-pP-specific cytotoxic CD8^+ T cell responses (ppCTL) were assessed using intracellular cytokine staining (ICS) and several cytokines and surface markers were assessed in parallel. After 7 days of stimulation with the respective MHC-I-pP and no other cytokines, CD3- and CD8-expressing T cells were stained for at least two different cytokines (IFN-γ, TNF-α) and when required CD107a expression as a marker for their cytotoxic potential.
First, peripheral blood mononuclear cells (PBMCs) from healthy donors and patients with hereditary hemochromatosis (HH) were analyzed. HH is a chronic liver disease characterized by excessive intestinal absorption of dietary iron resulting in a pathological deposition of iron in the liver. PBMCs or lymphocytes from liver tissue were extracted and specifically stimulated with (phospho-) peptides for 7 days before intracellular cytokine staining (ICS). Doublets and dead cells, using a fixable viability dye, were excluded. Lymphocytes were gated on CD3^+ and CD8^+ double positive cells and were analysed for expression of IFNγ, TNFα-, and CD107a.

Experiment [1] has as its system unexpanded lymphocyte cultures (CD8^+ T cells). As to the kind of experiment: ICS for MHC-I-pP reactivity of lymphocyte cultures without expansion (Table 23, No Expansion). As to conditions: HH6.
Experiment [2] relates to expanded lymphocyte cultures from deceased donor livers, cirrhotic livers and HCC. As to the kind of experiment: ICS for MHC-I-pP reactivity of liver-derived lymphocyte cultures after phosphopeptide-specific expansion. The class given is cell-based, human. Conditions: for ppCTL response, Deceased Donor Liver Do 2 / ppCTL response, Deceased Donor Liver Do 3 / ppCTL response, Deceased Donor Liver Do 4 / ppCTL response, Deceased Donor Liver Do 6 / ppCTL response, End-stage Liver Cirrhosis IHL 11 / ppCTL response, End-stage Liver Cirrhosis IHL 13 / ppCTL response, HCC Distal HCC 1 / ppCTL response, HCC Tumor HCC 1 / ppCTL response, HCC Distal HCC 4: pP-specifically expanded culture; for ppCTL response, HCC Distal HCC 1: HCC 1 Distal; for ppCTL response, HCC Tumor HCC 1: HCC 1 Tumor; for ppCTL response, HCC Distal HCC 4: HCC 4 Distal.

On to “RQAsIELPSMAV: LSP1 phosphopeptide, HLA-A*0201 (RQA[pS]IELPSMAV; listed as Homo sapiens)”, for which, in the experiment on CD8^+ T cells (PBMCs), the “Reactive CD8^+ T cell population, HH2” value was 0 (<0.25% reactive CD8^-+ T cells); the “Reactive CD8^+ T cell population, HH3” value was 0 (<0.25% reactive CD8^-+ T cells); the “Reactive CD8^+ T cell population, HH8” value is given as 0 (<0.25% reactive CD8^-+ T cells); the “Reactive CD8^+ T cell population, HH11” value is listed as 0 (<0.25% reactive CD8^-+ T cells). In addition, the “Reactive CD8^+ T cells, No Expansion, HH6” value in experiment [1] is on record as 1 (0.25-2.5% reactive CD8^-+ T cells). In addition, in experiment [2], the “Reactive CD8^+ T cells, pP-specific Expansion, Do2” value (“Reactive CD8^+ T cells … Do2” below) is 0 (<0.25% reactive CD8^-+ T cells); the “Reactive CD8^+ T cells, pP-specific Expansion, Do4” value (“Reactive CD8^+ T cells … Do4” for short) is listed as 0 (<0.25% reactive CD8^-+ T cells); the “Reactive CD8^+ T cells, pP-specific Expansion, HH6” value was 0 (<0.25% reactive CD8^-+ T cells); the “ppCTL response, Deceased Donor Liver Do 2” value is 0 (<0.25% reactive CD8-+ T cells). Besides, in experiment [2], the “ppCTL response, Deceased Donor Liver Do 3” value is recorded as 0 (<0.25% reactive CD8-+ T cells); the “ppCTL response, Deceased Donor Liver Do 4” value is recorded as 0 (<0.25% reactive CD8-+ T cells); the “ppCTL response, Deceased Donor Liver Do 6” value is reported as 1 (0.25-2.5% reactive CD8-+ T cells); the “ppCTL response, End-stage Liver Cirrhosis IHL 11” value was 0 (<0.25% reactive CD8-+ T cells). Besides, in experiment [2], the “ppCTL response, End-stage Liver Cirrhosis IHL 13” value is on record as 0 (<0.25% reactive CD8-+ T cells); the “ppCTL response, HCC Distal HCC 1” value is recorded as 0 (<0.25% reactive CD8-+ T cells); the “ppCTL response, HCC Tumor HCC 1” value is reported as 0 (<0.25% reactive CD8-+ T cells); the “ppCTL response, HCC Distal HCC 4” value is listed as 0 (<0.25% reactive CD8-+ T cells).
In the case of “RLFsKELRC: TAF13 phosphopeptide, HLA-A*0201 (RLF[pS]KELRC; listed as Homo sapiens)”, in the experiment with CD8^+ T cells (PBMCs), the “Reactive CD8^+ T cell population, HH2” value is 2 (2.5-5.0% reactive CD8^-+ T cells); the “Reactive CD8^+ T cell population, HH3” value is 0 (<0.25% reactive CD8^-+ T cells); the “Reactive CD8^+ T cell population, HH8” value was 0 (<0.25% reactive CD8^-+ T cells). In experiment [1], the “Reactive CD8^+ T cells, No Expansion, HH6” value is on record as 0 (<0.25% reactive CD8^-+ T cells). Moreover, in experiment [2], the “Reactive CD8^+ T cells … Do2” value is reported as 0 (<0.25% reactive CD8^-+ T cells); the “Reactive CD8^+ T cells … Do4” value is recorded as 0 (<0.25% reactive CD8^-+ T cells); the “Reactive CD8^+ T cells, pP-specific Expansion, HH6” value is on record as 0 (<0.25% reactive CD8^-+ T cells); the “ppCTL response, Deceased Donor Liver Do 2” value is listed as 1 (0.25-2.5% reactive CD8-+ T cells). Moreover, in experiment [2], the “ppCTL response, Deceased Donor Liver Do 3” value is recorded as 0 (<0.25% reactive CD8-+ T cells); the “ppCTL response, Deceased Donor Liver Do 4” value was 0 (<0.25% reactive CD8-+ T cells); the “ppCTL response, Deceased Donor Liver Do 6” value is recorded as 0 (<0.25% reactive CD8-+ T cells); the “ppCTL response, End-stage Liver Cirrhosis IHL 11” value is 0 (<0.25% reactive CD8-+ T cells). Further, in experiment [2], the “ppCTL response, End-stage Liver Cirrhosis IHL 13” value is reported as 0 (<0.25% reactive CD8-+ T cells); the “ppCTL response, HCC Distal HCC 1” value is 0 (<0.25% reactive CD8-+ T cells); the “ppCTL response, HCC Tumor HCC 1” value was 0 (<0.25% reactive CD8-+ T cells); the “ppCTL response, HCC Distal HCC 4” value is 0 (<0.25% reactive CD8-+ T cells).
Turning to “RQDsTPGKVFL: NR2C1 phosphopeptide, HLA-A*0201 (RQD[pS]TPGKVFL; listed as Homo sapiens)”, in the experiment on CD8^+ T cells (PBMCs), the “Reactive CD8^+ T cell population, HH2” value is 0 (<0.25% reactive CD8^-+ T cells); the “Reactive CD8^+ T cell population, HH3” value is 0 (<0.25% reactive CD8^-+ T cells); the “Reactive CD8^+ T cell population, HH8” value is 0 (<0.25% reactive CD8^-+ T cells); the “Reactive CD8^+ T cell population, HH11” value was 0 (<0.25% reactive CD8^-+ T cells). Besides, the “Reactive CD8^+ T cells, No Expansion, HH6” value in experiment [1] was 2 (2.5-5.0% reactive CD8^-+ T cells). In addition, in experiment [2], the “Reactive CD8^+ T cells … Do2” value is 0 (<0.25% reactive CD8^-+ T cells); the “Reactive CD8^+ T cells … Do4” value was 0 (<0.25% reactive CD8^-+ T cells); the “Reactive CD8^+ T cells, pP-specific Expansion, HH6” value was 1 (0.25-2.5% reactive CD8^-+ T cells); the “ppCTL response, Deceased Donor Liver Do 2” value is 1 (0.25-2.5% reactive CD8-+ T cells). Further, in experiment [2], the “ppCTL response, Deceased Donor Liver Do 3” value was 0 (<0.25% reactive CD8-+ T cells); the “ppCTL response, Deceased Donor Liver Do 4” value is 0 (<0.25% reactive CD8-+ T cells); the “ppCTL response, Deceased Donor Liver Do 6” value is on record as 0 (<0.25% reactive CD8-+ T cells); the “ppCTL response, End-stage Liver Cirrhosis IHL 11” value was 0 (<0.25% reactive CD8-+ T cells). For the same substance, in experiment [2], the “ppCTL response, End-stage Liver Cirrhosis IHL 13” value was 0 (<0.25% reactive CD8-+ T cells); the “ppCTL response, HCC Distal HCC 1” value is reported as 0 (<0.25% reactive CD8-+ T cells); the “ppCTL response, HCC Tumor HCC 1” value was 0 (<0.25% reactive CD8-+ T cells); the “ppCTL response, HCC Distal HCC 4” value was 0 (<0.25% reactive CD8-+ T cells).
As to “RQLsSGVSEI: HSPB1 phosphopeptide, HLA-A*0201 (RQL[pS]SGVSEI; listed as Homo sapiens)”, in the experiment with CD8^+ T cells (PBMCs), the “Reactive CD8^+ T cell population, HH2” value is 0 (<0.25% reactive CD8^-+ T cells); the “Reactive CD8^+ T cell population, HH3” value is on record as 0 (<0.25% reactive CD8^-+ T cells); the “Reactive CD8^+ T cell population, HH8” value is recorded as 0 (<0.25% reactive CD8^-+ T cells); the “Reactive CD8^+ T cell population, HH11” value is 0 (<0.25% reactive CD8^-+ T cells). The “Reactive CD8^+ T cells, No Expansion, HH6” value in experiment [1] is given as 2 (2.5-5.0% reactive CD8^-+ T cells). In addition, in experiment [2], the “Reactive CD8^+ T cells … Do2” value is 0 (<0.25% reactive CD8^-+ T cells); the “Reactive CD8^+ T cells … Do4” value was 0 (<0.25% reactive CD8^-+ T cells); the “Reactive CD8^+ T cells, pP-specific Expansion, HH6” value is listed as 0 (<0.25% reactive CD8^-+ T cells); the “ppCTL response, Deceased Donor Liver Do 2” value was 0 (<0.25% reactive CD8-+ T cells). Further, in experiment [2], the “ppCTL response, Deceased Donor Liver Do 3” value is 0 (<0.25% reactive CD8-+ T cells); the “ppCTL response, Deceased Donor Liver Do 4” value was 0 (<0.25% reactive CD8-+ T cells); the “ppCTL response, Deceased Donor Liver Do 6” value was 0 (<0.25% reactive CD8-+ T cells); the “ppCTL response, End-stage Liver Cirrhosis IHL 11” value was 0 (<0.25% reactive CD8-+ T cells). Also, in experiment [2], the “ppCTL response, End-stage Liver Cirrhosis IHL 13” value is 0 (<0.25% reactive CD8-+ T cells); the “ppCTL response, HCC Distal HCC 1” value is listed as 0 (<0.25% reactive CD8-+ T cells); the “ppCTL response, HCC Tumor HCC 1” value is recorded as 0 (<0.25% reactive CD8-+ T cells); the “ppCTL response, HCC Distal HCC 4” value is 0 (<0.25% reactive CD8-+ T cells).
